Data reported in patent US12612374B2, “Thiazole and diphenyl substituted sulfoxides for use in improving cognition functions and against addictions to substances” (Cogmotiv FlexCo, priority 2019, dated 2026).

Molecular target: T1, human NET (Homo sapiens, UniProt P23975)
T1 construct: expressed in transfected cells
Experiment: Monoamine transporter reuptake inhibition, [3H]-MPP+ uptake (NET)
Assay type: cell-based
Details: HEK 293 stably expressing human NET; 0.02 μM [3H]-MPP+, 3 min; means of at least three independent experiments; NS = Not specific in the used concentration range; read-out: NET IC50 ± SD

T1 sequence (P23975 whole entry): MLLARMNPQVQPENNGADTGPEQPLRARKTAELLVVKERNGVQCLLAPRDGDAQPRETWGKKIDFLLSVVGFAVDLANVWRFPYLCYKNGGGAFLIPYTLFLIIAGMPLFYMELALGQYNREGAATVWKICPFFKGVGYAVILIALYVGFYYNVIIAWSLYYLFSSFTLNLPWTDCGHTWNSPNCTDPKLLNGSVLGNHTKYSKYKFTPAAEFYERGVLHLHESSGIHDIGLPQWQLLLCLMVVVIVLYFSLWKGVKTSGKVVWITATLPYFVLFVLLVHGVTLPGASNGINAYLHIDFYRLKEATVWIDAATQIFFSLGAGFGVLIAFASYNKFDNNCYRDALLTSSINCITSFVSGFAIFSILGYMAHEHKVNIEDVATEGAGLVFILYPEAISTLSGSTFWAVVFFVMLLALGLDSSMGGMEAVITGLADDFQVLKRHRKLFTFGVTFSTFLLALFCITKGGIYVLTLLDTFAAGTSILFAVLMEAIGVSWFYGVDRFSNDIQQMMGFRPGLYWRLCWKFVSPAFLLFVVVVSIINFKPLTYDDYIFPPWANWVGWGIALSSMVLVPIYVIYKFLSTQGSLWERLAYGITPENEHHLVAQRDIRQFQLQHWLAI

`[O-][S+](Cc1cncs1)C(c1ccccc1)c1cccc(Br)c1` (mixture of isomers) [(R), 5-((((3-bromophenyl)(phenyl)methyl)sulfinyl)methyl)thiazole] and `[O-][S@@+](Cc1cncs1)[C@@H](c1ccccc1)c1cccc(Br)c1` (single isomer, unassigned) [Compound 1_1] are within error of each other in IC50: 17.2 ± 4.5 µM for the first, 11.7 ± 7.3 µM for the second.

Going from `[O-][S@+](Cc1cncs1)[C@@H](c1ccccc1)c1cccc(Br)c1` [Compound 1_2] to `[O-][S@+](Cc1cncs1)[C@H](c1ccccc1)c1cccc(Br)c1` [Compound 2_2], the IC50 falls from 148 ± 68.4 µM to 13.9 ± 15.9 µM (11-fold). The second is the more potent here.
